Data taken from PubChem BioAssay AID2060338 (Molecular Pharmacology Branch, DTP, NCI, 2025).
Values joined by “and” are separate entries in the source; they are usually repeats but may differ in a detail not shown here. Equal entries are not always repeated.

Tested on: 556581-035-R-J1-PDC spheroids with HUVEC/MSC, viability
Experiment: Anticancer human tumor 556581-035-R-J1-PDC patient-derived ovarian carcinoma cell line growth inhibition [IpAb]
Conditions: for viability, T/C: stronger effect = lower value
Outline: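 Spheroids of 60% malignant cells, 25% HUVEC and 15% MSC were exposed to targeted agents combined with ipatasertib or abemaciclib. Doses started at or near clinical Cmax (10 microM when unknown) and fell in half-log steps.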
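Further: spheroids exposed to compounds for 7 days before readout.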

Structure (SMILES): Cn1ncc(Cl)c1-c1cc(C(=O)NC(CN)Cc2cccc(F)c2)sc1Cl (configuration not stated) + CC(C)NCC(C(=O)N1CCN(c2ncnc3c2C(C)CC3O)CC1)c1ccc(Cl)cc1
- IC50 (curve of first compound, second compound 0.1 µM): 1.86 µM
- IC50 (curve of first compound, second compound 0.316 µM): 2.39 µM
- IC50 (curve of first compound, second compound 1 µM): 1.9 µM
- IC50 (curve of first compound, second compound 3.16 µM): 1.31 µM
- IC50 (curve of first compound, second compound 10 µM): 1.19 µM
- viability, T/C (second compound 0.1 µM, first compound 0.0316 µM): 84%
- viability, T/C (second compound 0.1 µM, first compound 0.1 µM): 81.2%
- viability, T/C (second compound 0.1 µM, first compound 0.316 µM): 68.5%
- viability, T/C (second compound 0.1 µM, first compound 1 µM): 63.4%
- viability, T/C (second compound 0.1 µM, first compound 3.16 µM): 40.9%
- viability, T/C (second compound 0.1 µM, first compound 10 µM): 0.2%
- viability, T/C (second compound 0.316 µM, first compound 0.0316 µM): 37.8%
- viability, T/C (second compound 0.316 µM, first compound 0.1 µM): 79.6%
- viability, T/C (second compound 0.316 µM, first compound 0.316 µM): 67.2%
- viability, T/C (second compound 0.316 µM, first compound 1 µM): 56.8%
- viability, T/C (second compound 0.316 µM, first compound 3.16 µM): 47.3%
- viability, T/C (second compound 0.316 µM, first compound 10 µM): 0.21%
- viability, T/C (second compound 1 µM, first compound 0.0316 µM): 70.2%
- viability, T/C (second compound 1 µM, first compound 0.1 µM): 67.2%
- viability, T/C (second compound 1 µM, first compound 0.316 µM): 67.6%
- viability, T/C (second compound 1 µM, first compound 1 µM): 55.3%
- viability, T/C (second compound 1 µM, first compound 3.16 µM): 45.1%
- viability, T/C (second compound 1 µM, first compound 10 µM): 0.18%
- viability, T/C (second compound 3.16 µM, first compound 0.0316 µM): 55.3%
- viability, T/C (second compound 3.16 µM, first compound 0.1 µM): 74.6%
- viability, T/C (second compound 3.16 µM, first compound 0.316 µM): 54.4%
- viability, T/C (second compound 3.16 µM, first compound 1 µM): 54.2%
- viability, T/C (second compound 3.16 µM, first compound 3.16 µM): 37.8%
- viability, T/C (second compound 3.16 µM, first compound 10 µM): 1.42%
- viability, T/C (second compound 10 µM, first compound 0.0316 µM): 51.8%
- viability, T/C (second compound 10 µM, first compound 0.1 µM): 55.7%
- viability, T/C (second compound 10 µM, first compound 0.316 µM): 51.5%
- viability, T/C (second compound 10 µM, first compound 1 µM): 53.4%
- viability, T/C (second compound 10 µM, first compound 3.16 µM): 32.5%
- viability, T/C (second compound 10 µM, first compound 10 µM): 4.77%

Structure (SMILES): Cn1ncnc1[C@H]1c2n[nH]c(=O)c3cc(F)cc(c23)N[C@@H]1c1ccc(F)cc1
- viability, T/C (compound 0.000316 µM): 120% and 97.9%
- viability, T/C (compound 0.001 µM): 106% and 94.6%
- viability, T/C (compound 0.00316 µM): 91.1% and 85.3%
- viability, T/C (compound 0.01 µM): 76.8% and 86.8%
- viability, T/C (compound 0.0316 µM): 73.8% and 78.4%
- viability, T/C (compound 0.1 µM): 68% and 62.8%
- IC50 (curve of compound): > 0.1 µM
